The values that follow come from ChEMBL document CHEMBL5303304, “EUbOPEN Chemogenomics Library - IncuCyte” (2023).

What all share (format): toxicity, cell-based
For series [1], the system named is Fibroblast. The experiment in a line: Incucyte cell viability with human fibroblast. The conditions noted are these: 10 µM, compound concentration 10 uM.
The subject of series [2] is HEK-293T. Kind of series: Incucyte cell viability with HEK293T. To be noted: human, 10 µM, compound concentration 10 uM.
Series [3] concerns U2OS. Kind of series: Incucyte cell viability with U2OS. The conditions noted are these: human, 10 µM, compound concentration 10 uM.
Further: unitless GR value; below 1 slowed growth and below 0 cell loss.

In the case of `O=C(Nc1ccnc(NC(=O)C2CC2)c1)c1c(Cl)cccc1Cl`, the “Growth Rate” value in series [1] (0 h, replicate number 1) was -0.14; in series [1] (0 h, replicate number 2), -0.81; in series [2] (0 h, replicate number 1), -0.99; in series [3] (6 h, replicate number 1) it was 0.46; in series [3] (12 h, replicate number 1) it was -0.05; in series [3] (18 h, replicate number 1), 0.81. The “Growth Rate” value in series [3] (18 h, replicate number 2) amounted to 0.93; in series [3] (24 h, replicate number 1), 0.98; in series [3] (24 h, replicate number 2), 0.84.
`Cc1ccc(S(=O)(=O)O)cc1.Cn1cc(Nc2nccc(N3CC4CCC(C3)N4C(=O)[C@@H]3CC3(F)F)n2)cn1`: the “Growth Rate” value in series [1] (0 h, replicate number 1) was found to be 0.69; in series [1] (0 h, replicate number 2), 0.55; in series [1] (6 h, replicate number 1) it was 0.01; in series [1] (6 h, replicate number 2), 0.12; in series [1] (12 h, replicate number 1), 0.8; in series [1] (12 h, replicate number 2) it was 0.69. The “Growth Rate” value turned out to be 0.4 in series [1] (18 h, replicate number 1); 0.88 in series [1] (18 h, replicate number 2); 1 in series [1] (24 h, replicate number 1); 0.13 in series [2] (0 h, replicate number 1); 0.93 in series [2] (6 h, replicate number 2); 0.98 in series [2] (18 h, replicate number 2). Besides, the “Growth Rate” value in series [3] (0 h, replicate number 2) is recorded as 0.58; in series [3] (6 h, replicate number 1), 0.03; in series [3] (6 h, replicate number 2), 0.95; in series [3] (12 h, replicate number 1), -0.28; in series [3] (12 h, replicate number 2), 0.96; in series [3] (18 h, replicate number 2) it was 0.84. For the same compound, in series [3] (24 h, replicate number 2), the “Growth Rate” value was determined as 0.8.
With `COc1ccc(C(=O)N[C@H](C)c2cccc(C(=O)Nc3nc4c(s3)CN(C)CC4)c2)cc1C.O=C(O)C(F)(F)F`, the “Growth Rate” value in series [1] (0 h, replicate number 1) is listed as 0.21; in series [1] (0 h, replicate number 2), -0.72; in series [2] (0 h, replicate number 1), -0.36; in series [3] (18 h, replicate number 2), 0.97; in series [3] (24 h, replicate number 2), 0.88.
Turning to `CC(=O)c1ccc2c(c1)/C(=C(/Nc1cccc(C#N)c1)c1ccc3c(c1)OCCO3)C(=O)N2`, the “Growth Rate” value in series [1] (0 h, replicate number 1) is 0.26; in series [1] (0 h, replicate number 2) it was -0.78; in series [1] (24 h, replicate number 2), 0.84; in series [2] (0 h, replicate number 1), -0.8; in series [2] (6 h, replicate number 1) it was 0.26; in series [2] (6 h, replicate number 2), 0.65. Also, the “Growth Rate” value in series [2] (12 h, replicate number 1) is on record as -0.22; in series [2] (12 h, replicate number 2) it was 0.12; in series [2] (18 h, replicate number 1), -0.15; in series [2] (18 h, replicate number 2) it was -0.03; in series [2] (24 h, replicate number 1) it was -0.16; in series [2] (24 h, replicate number 2), -0.02. In addition, the “Growth Rate” value in series [3] (12 h, replicate number 2) turned out to be 0.72; in series [3] (18 h, replicate number 1), 0.73; in series [3] (18 h, replicate number 2), 0.5; in series [3] (24 h, replicate number 1), 0.52; in series [3] (24 h, replicate number 2), 0.43.
`COc1cc2ncnc(N[C@H](C)c3ccccc3)c2cc1OC1CCN(S(C)(=O)=O)CC1.Cl`: the “Growth Rate” value in series [1] (0 h, replicate number 1) is recorded as 0.4; in series [1] (6 h, replicate number 2), 0.39; in series [1] (12 h, replicate number 2) it was 0.61; in series [2] (0 h, replicate number 1), 0.37; in series [2] (0 h, replicate number 2), -0.04; in series [2] (12 h, replicate number 2), 0.89. In addition, the “Growth Rate” value in series [3] (0 h, replicate number 1) is on record as 0.65; in series [3] (6 h, replicate number 1) it was 0.77; in series [3] (12 h, replicate number 1) it was 0.89; in series [3] (18 h, replicate number 1), 0.8; in series [3] (24 h, replicate number 1), 0.74.
As for `COc1c(NC(=O)c2cc3cccc(Oc4ccnc(C(=O)N5CCN(C)CC5)c4)c3n2C)cc(C(C)(C)C)cc1NS(C)(=O)=O`, the “Growth Rate” value in series [1] (6 h, replicate number 1) is 0.02; in series [1] (6 h, replicate number 2), 0.43; in series [1] (12 h, replicate number 2), 0.98; in series [2] (0 h, replicate number 1) it was 0.87; in series [2] (0 h, replicate number 2) it was -0.84; in series [2] (6 h, replicate number 1), 0.93. Moreover, the “Growth Rate” value is listed as 0.57 in series [2] (6 h, replicate number 2); 0.77 in series [2] (12 h, replicate number 2); 0.93 in series [2] (18 h, replicate number 2); -0.03 in series [3] (0 h, replicate number 1); 0.57 in series [3] (0 h, replicate number 2); 0.82 in series [3] (6 h, replicate number 1). The “Growth Rate” value in series [3] (6 h, replicate number 2) is 0.58; in series [3] (12 h, replicate number 1), 0.79; in series [3] (12 h, replicate number 2), 0.69; in series [3] (18 h, replicate number 1), 0.83; in series [3] (18 h, replicate number 2), 0.7; in series [3] (24 h, replicate number 1) it was 0.84. Moreover, the “Growth Rate” value in series [3] (24 h, replicate number 2) came out at 0.69.
